From patent publication US10842845B2, “Oxytocin improves treatment of obstructive sleep apnea” (THE GEORGE WASHINGTON UNIVERSITY, priority 2014, dated 2020)

Biological target: T1, DREADDs receptors on PVN OXT neurons (Homo sapiens, UniProt P20309, A239G/Y149C)
T1 construct: mCherry (C); host or cells: PVN oxytocin neurons of Sprague-Dawley rats, in vivo, transduced with AAV2-hSyn-DIO-hM3D(Gq)-mCherry and rAAV1-OXT-Cre
Experiment: MAP over 21 days of CIH/H exposure with daily PVN OXT neuron activation (daily CNO)
Type: in vivo, Sprague-Dawley rats
Settings: n=8
Source text: To record blood pressure and heart rate, male Sprague-Dawley rats, 3-4 weeks of age, were anesthetized using isoflurane (2-4%) and a HD-XII pressure transmitter was implanted (Data Sciences International, St Paul, Minn., USA) with its cathether inserted into the abdominal aorta to record pressure and EKG leads were attached subcutaneously to obtain EKG recordings and heart rate. All rats with telemetry devices were allowed 7-14 days to recover from transmitter implantation surgery before any measurements were recorded. Blood pressure and heart rate were recorded via radio-frequency signals obtained through the Ponemah data acquisition system (Data Sciences International). Baseline recordings of blood pressure and heart rate were obtained for 3 days prior to CIH/H exposure. Prior to, and during, the 28 day CIH/H exposure period daily baseline recordings of blood pressure and heart rate were recorded.
Animals were exposed to repetitive cycles of 3 minutes of mild H/H (6% O2+5% CO2+89%, N2) followed by 3 minutes of normoxia (21% O2+79% N2), repeated for 10 times per hour, 8 hr/day, for 3 or 4 weeks. The animals were exposed to CIH/H for 8 hours during light phase and to normal air during the remaining 16 hr. Unexposed animals that were exposed to normal air (21% O2+79% N2), were placed adjacent to the chambers during the exposure period to undergo similar handling, general lab conditions, and background noise as the CIH/H group.
1-2 weeks after telemetry implantation, DREADDs receptors on PVN OXT neurons were activated daily by intraperitoneal (IP) injection of clozapine-n-oxide (CNO, 1.0 mg/kg). To investigate the effects of CNO on resting BP and HR in both DREADDs-expressing and sham animals, 3 days prior to CIH/H exposure (control days) baseline BP and HR values were recorded for a 20 min period before CNO injection. Animals from each group then received an IP injection of CNO, BP and HR were recorded for 1 hr, and the animals then underwent exposure to air for 8 hr to achieve acclimation to the chambers. During the 21 days of CIH/H exposure, baseline recordings of BP and HR were obtained before CNO injection, recorded for 1 hr post CNO injection, and for the entire duration of OHM exposure.
To examine the effects of CNO on and the chronic changes to mean arterial blood pressure (MAP) over the 21 days of OHM exposure, values were recorded before and after CNO injection on control days prior to CIH exposures, and days 1, 3, 6, 9, 12, 15, 18, and 21 of CIH/H. Changes within the DREADDs-expressing animals and the sham animals were statistically analyzed by one-way ANOVA with repeated-measures followed by Bonferroni's multiple comparison test. […]

T1 sequence (P20309 whole entry Y149C/A239G, the tested form may be a part): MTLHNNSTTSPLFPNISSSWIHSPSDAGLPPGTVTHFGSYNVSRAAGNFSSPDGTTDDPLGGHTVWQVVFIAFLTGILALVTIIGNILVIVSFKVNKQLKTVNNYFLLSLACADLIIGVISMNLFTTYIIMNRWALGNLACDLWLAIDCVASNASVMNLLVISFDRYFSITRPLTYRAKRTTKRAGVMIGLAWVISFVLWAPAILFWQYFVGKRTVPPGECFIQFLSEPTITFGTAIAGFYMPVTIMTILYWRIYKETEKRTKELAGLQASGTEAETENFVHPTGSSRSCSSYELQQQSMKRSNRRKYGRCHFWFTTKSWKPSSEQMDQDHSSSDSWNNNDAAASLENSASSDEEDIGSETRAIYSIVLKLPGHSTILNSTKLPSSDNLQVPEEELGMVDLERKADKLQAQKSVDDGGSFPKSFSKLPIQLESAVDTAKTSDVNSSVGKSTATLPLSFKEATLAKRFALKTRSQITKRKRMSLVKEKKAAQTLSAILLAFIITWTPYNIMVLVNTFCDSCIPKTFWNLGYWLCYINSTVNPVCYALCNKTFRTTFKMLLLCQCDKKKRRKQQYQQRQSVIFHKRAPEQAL

## C[N+]1([O-])CCN(C2=Nc3cc(Cl)ccc3Nc3ccccc32)CC1 [CNO, clozapine-n-oxide]
Day 12 of CIH/H, sham group 117±4.1 mmHg
  MAP in DREADDs-expressing group, Day 12: 105±2.6 mmHg
Day 15 of CIH/H, sham group 118±2.6 mmHg
  MAP in DREADDs-expressing group, Day 15: 105±3.1 mmHg
Day 18 of CIH/H, sham group 122±1.1 mmHg
  MAP in DREADDs-expressing group, Day 18: 104±2.9 mmHg
Day 21 of CIH/H, 104±2.6 mmHg on control days, sham group 120±0.5 mmHg
  MAP in DREADDs-expressing group, Day 21: 103±3.0 mmHg
